The source of these data is patent publication US20240226228A1, “ANTIMICROBIAL PEPTOID HAVING IMPROVED SELECTIVITY AND ANTIMICROBIAL COMPOSITION COMPRISING SAME” (priority 2021, published 2024).

For one series, the system named is E. coli ATCC25922. In short, it runs like this:
(§1)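 Cation-adjusted MHB2 cultures (18 h, subcultured 4 h) adjusted to 2×10^5–5×10^5 CFU/mL in medium with 0.02% BSA and 0.001% acetic acid.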

The next series concerns S. aureus ATCC 25923. In outline:
as §1

In the next series the test system is red blood cells. Briefly: Hemolysis assay. Format: cell-based, Sprague-Dawley mouse. In outline: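 Peptoid is mixed with 10% (v/v) PBS-washed erythrocytes (male Sprague-Dawley […], 13 weeks) and held 1 h at 37 °C. Hemolysis is calculated from 540 nm absorbance of the supernatant, with PBS as 0% and Triton X-100 as 100%.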
Where [1] appears, read: Table 18, TFA salt vs counter ion-substituted (HCl, AcOH) peptoids.
Setting [2] is: Tables 11-13, 24 hours at 37° C., maximum concentration 25 μM.

Values after ≈ are worked out from the molar mass of the structure shown. Like-named read-outs stand apart in the source and are kept apart here. Where a SMILES comes first, the peptide text is derived from it. [ ]: non-standard residue; d: D form. Gly(N(CH2)2(3-indolyl)) = O=C(O)CNCCc1c[nH]c2ccccc12; Gly(N-CH2CH2-imidazol-4-yl) = O=C(O)CNCCc1c[nH]cn1; Nspe = C[C@H](NCC(=O)O)c1ccccc1; Nphe = O=C(O)CNCc1ccccc1; Nlys = NCCCCNCC(=O)O

What is called HC50 is the concentration giving 50% haemolysis. A low value points to more damage to red cells.

As to `C[C@@H](c1ccccc1)N(CC(N)=O)C(=O)CN(C(=O)CN(CCCCN)C(=O)CN(C(=O)CN(CCc1c[nH]c2ccccc12)C(=O)CN(CCCCN)C(=O)CN(CCc1c[nH]c2ccccc12)C(=O)CN(C(=O)CN(CCCCN)C(=O)CN(C(=O)CN(C(=O)CNCCCCN)[C@@H](C)c1ccccc1)[C@@H](C)c1ccccc1)[C@@H](C)c1ccccc1)[C@@H](C)c1ccccc1)[C@@H](C)c1ccccc1` [Peptoid 15-1], the “MIC E. coli ATCC25922” value in the series with E. coli ATCC25922 (setting [1]) stood at 6.3 µM. For the same compound, the “MIC S. aureus ATCC 25923” value in the series with S. aureus ATCC 25923 (setting [1]) is 3.1 µM. For the same compound, in the series on red blood cells, the HC10 was 50.4 µM, the HC50 was > 100 µM and the “Hmax (100 μM)” value is given as 33.4 ± 9.7%.
For `C[C@@H](c1ccccc1)N(CC(N)=O)C(=O)CN(C(=O)CN(CCCCN)C(=O)CN(C(=O)CN(C(=O)CN(CCCCN)C(=O)CN(C(=O)CN(C(=O)CN(CCCCN)C(=O)CN(CCc1c[nH]c2ccccc12)C(=O)CN(C(=O)CNCCCCN)[C@@H](C)c1ccccc1)[C@@H](C)c1ccccc1)[C@@H](C)c1ccccc1)[C@@H](C)c1ccccc1)[C@@H](C)c1ccccc1)[C@@H](C)c1ccccc1` [Peptoid 10-2], in that order: 6.3 µM, 1.6 µM, 14.1 µM, 29.4 µM and 102.3 ± 11.3%.
With `C[C@@H](c1ccccc1)N(CC(=O)N(CCCCN)CC(=O)N(CC(=O)N(CC(=O)N(CCCCN)CC(=O)N(CCCCN)CC(=O)N(CC(=O)N(CCCCN)CC(=O)N(CCc1c[nH]c2ccccc12)CC(=O)N(CCc1c[nH]c2ccccc12)CC(N)=O)Cc1ccccc1)[C@@H](C)c1ccccc1)[C@@H](C)c1ccccc1)C(=O)CN(C(=O)CNCCCCN)[C@@H](C)c1ccccc1` [Peptoid 39] (H-[Nlys][Nspe][Nspe][Nlys][Nspe][Nspe][Nlys][Nlys][Nphe][Nlys][Gly(N(CH2)2(3-indolyl))][Gly(N(CH2)2(3-indolyl))]-NH2), in the series on E. coli ATCC25922 (setting [2]), the “MIC E. coli ATCC25922” value was found to be 25 µM (≈ 46.3 µg/mL). Moreover, the “MIC S. aureus ATCC 25923” value against S. aureus ATCC 25923 (setting [2]) was 6.3 µM (≈ 11.7 µg/mL). In addition, in the series with red blood cells, the HC10 is recorded as 100/>100 μM, the HC50 is on record as 100/>100 μM and the “Hmax (100 μM)” value is on record as 10.2 ± 0.3%.
Consider `C[C@@H](c1ccccc1)N(CC(=O)N(CCCCN)CC(=O)N(CCc1c[nH]c2ccccc12)CC(=O)N(CCc1c[nH]c2ccccc12)CC(N)=O)C(=O)CN(CCCCN)C(=O)CN(CCCCN)C(=O)CN(C(=O)CN(C(=O)CN(CCCCN)C(=O)CN(Cc1ccccc1)C(=O)CN(Cc1ccccc1)C(=O)CNCCCCN)[C@@H](C)c1ccccc1)[C@@H](C)c1ccccc1` [Peptoid 41] (H-[Nlys][Nphe][Nphe][Nlys][Nspe][Nspe][Nlys][Nlys][Nspe][Nlys][Gly(N(CH2)2(3-indolyl))][Gly(N(CH2)2(3-indolyl))]-NH2), for which the “MIC E. coli ATCC25922” value against E. coli ATCC25922 (setting [2]) was 25 µM (≈ 45.9 µg/mL). Moreover, in the series with S. aureus ATCC 25923 (setting [2]), the “MIC S. aureus ATCC 25923” value was found to be 6.3 µM (≈ 11.6 µg/mL). In addition, in the series with red blood cells, the HC10 is given as >100/>100 μM, the HC50 is >100/>100 μM and the “Hmax (100 μM)” value amounted to 7.1 ± 0.1%.
As to `C[C@@H](c1ccccc1)N(CC(=O)N(CCc1c[nH]c2ccccc12)CC(N)=O)C(=O)CN(CCCCN)C(=O)CN(C(=O)CN(C(=O)CN(CCCCN)C(=O)CN(C(=O)CN(C(=O)CN(CCCCN)C(=O)CN(C(=O)CN(C(=O)CNCCCCN)[C@@H](C)c1ccccc1)[C@@H](C)c1ccccc1)[C@@H](C)c1ccccc1)[C@@H](C)c1ccccc1)[C@@H](C)c1ccccc1)[C@@H](C)c1ccccc1` [Peptoid 7] (H-[Nlys][Nspe][Nspe][Nlys][Nspe][Nspe][Nlys][Nspe][Nspe][Nlys][Nspe][Gly(N(CH2)2(3-indolyl))]-NH2), the “MIC E. coli ATCC25922” value against E. coli ATCC25922 (setting [2]) was 6.3 µM (≈ 11.7 µg/mL). Moreover, the “MIC S. aureus ATCC 25923” value against S. aureus ATCC 25923 (setting [2]) is 3.1 µM (≈ 5.76 µg/mL). In the series with red blood cells, the HC10 is 7.8 µM, the HC50 was 23.8 µM and the “Hmax (100 μM)” value is recorded as 94.1 ± 4.3%.
With `C[C@@H](c1ccccc1)N(CC(=O)N(CCCCN)CC(=O)N(CCc1c[nH]c2ccccc12)CC(=O)N(CCc1c[nH]c2ccccc12)CC(N)=O)C(=O)CN(CCCCN)C(=O)CN(CCCCN)C(=O)CN(C(=O)CN(C(=O)CN(CCCCN)C(=O)CN(C(=O)CN(C(=O)CNCCc1c[nH]cn1)[C@@H](C)c1ccccc1)[C@@H](C)c1ccccc1)[C@@H](C)c1ccccc1)[C@@H](C)c1ccccc1` [Peptoid 81] (H-[Gly(N-CH2CH2-imidazol-4-yl)][Nspe][Nspe][Nlys][Nspe][Nspe][Nlys][Nlys][Nspe][Nlys][Gly(N(CH2)2(3-indolyl))][Gly(N(CH2)2(3-indolyl))]-NH2), the “MIC E. coli ATCC25922” value in the series with E. coli ATCC25922 (ATCC25922) worked out at 6.3 µM (≈ 11.9 µg/mL). In addition, the “MIC S. aureus ATCC 25923” value in the series with S. aureus ATCC 25923 (ATCC 25923) was determined as 6.3 µM (≈ 11.9 µg/mL). Also, in the series on red blood cells, the HD10 is >100.0/>100.0, the HD50 is >100.0/>100.0 and the “Hmax (100 μM)” value is on record as 5.7 ± 0.1.
For `C[C@@H](c1ccccc1)N(CC(N)=O)C(=O)CN(CCCCN)C(=O)CN(CCCCN)C(=O)CN(C(=O)CN(C(=O)CN(CCc1c[nH]cn1)C(=O)CN(C(=O)CN(C(=O)CN(CCCCN)C(=O)CN(CCc1c[nH]c2ccccc12)C(=O)CN(CCc1c[nH]c2ccccc12)C(=O)CNCCCCN)[C@@H](C)c1ccccc1)[C@@H](C)c1ccccc1)[C@@H](C)c1ccccc1)[C@@H](C)c1ccccc1` [Peptoid 74] (H-[Nlys][Gly(N(CH2)2(3-indolyl))][Gly(N(CH2)2(3-indolyl))][Nlys][Nspe][Nspe][Gly(N-CH2CH2-imidazol-4-yl)][Nspe][Nspe][Nlys][Nlys][Nspe]-NH2), the “MIC E. coli ATCC25922” value in the series with E. coli ATCC25922 (ATCC25922) was determined as 6.3 µM (≈ 11.9 µg/mL). Moreover, the “MIC S. aureus ATCC 25923” value against S. aureus ATCC 25923 (ATCC 25923) is 3.1 µM (≈ 5.85 µg/mL). In addition, in the series with red blood cells, the HD10 was determined as 81.7, the HD50 is reported as > 100.0 and the “Hmax (100 μM)” value stood at 14.2 ± 0.3.
In the case of `C[C@@H](c1ccccc1)N(CC(=O)N(CCCCN)CC(=O)N(CCc1c[nH]c2ccccc12)CC(=O)N(CCc1c[nH]c2ccccc12)CC(N)=O)C(=O)CN(CCCCN)C(=O)CN(CCCCN)C(=O)CN(Cc1ccccc1)C(=O)CN(Cc1ccccc1)C(=O)CN(CCCCN)C(=O)CN(C(=O)CN(C(=O)CNCCCCN)[C@@H](C)c1ccccc1)[C@@H](C)c1ccccc1` [Peptoid 40] (H-[Nlys][Nspe][Nspe][Nlys][Nphe][Nphe][Nlys][Nlys][Nspe][Nlys][Gly(N(CH2)2(3-indolyl))][Gly(N(CH2)2(3-indolyl))]-NH2), the “MIC E. coli ATCC25922” value against E. coli ATCC25922 (setting [2]) turned out to be 12.5 µM (≈ 23 µg/mL). The “MIC S. aureus ATCC 25923” value in the series with S. aureus ATCC 25923 (setting [2]) is 12.5 µM (≈ 23 µg/mL). Also, in the series on red blood cells, the HC10 is >100/>100 μM, the HC50 is >100/>100 μM and the “Hmax (100 μM)” value was 8.9 ± 0.2%.
For `C[C@@H](c1ccccc1)N(CC(N)=O)C(=O)CN(C(=O)CN(CCCCN)C(=O)CN(C(=O)CN(CCCCN)C(=O)CN(CCCCN)C(=O)CN(C(=O)CN(C(=O)CN(CCCCN)C(=O)CN(CCc1c[nH]c2ccccc12)C(=O)CN(CCc1c[nH]c2ccccc12)C(=O)CNCCCCN)[C@@H](C)c1ccccc1)[C@@H](C)c1ccccc1)[C@@H](C)c1ccccc1)[C@@H](C)c1ccccc1` [Peptoid 33], the “MIC E. coli ATCC25922” value in the series with E. coli ATCC25922 (setting [2]) came out at 12.5 µM (≈ 23.3 µg/mL). Moreover, the “MIC S. aureus ATCC 25923” value in the series with S. aureus ATCC 25923 (setting [2]) came out at 3.1 µM (≈ 5.78 µg/mL). Besides, in the series with red blood cells, the HC10 is given as >100/>100 μM, the HC50 was >100/>100 μM and the “Hmax (100 μM)” value is on record as 5.0 ± 0.2%.
As for `C[C@@H](c1ccccc1)N(CC(N)=O)C(=O)CN(C(=O)CN(CCCCN)C(=O)CN(C(=O)CN(CCCCN)C(=O)CN(CCCCN)C(=O)CN(CCc1c[nH]c2ccccc12)C(=O)CN(C(=O)CN(CCCCN)C(=O)CN(C(=O)CN(C(=O)CNCCCCN)[C@@H](C)c1ccccc1)[C@@H](C)c1ccccc1)[C@@H](C)c1ccccc1)[C@@H](C)c1ccccc1)[C@@H](C)c1ccccc1` [Peptoid 25], the “MIC E. coli ATCC25922” value with E. coli ATCC25922 (setting [2]) was >25 µM. Besides, the “MIC S. aureus ATCC 25923” value in the series on S. aureus ATCC 25923 (setting [2]) is 3.1 µM (≈ 5.66 µg/mL). Moreover, in the series on red blood cells, the HC10 is >100/>100 μM, the HC50 is on record as >100/>100 μM and the “Hmax (100 μM)” value is 2.7 ± 0.4%.
`C[C@@H](c1ccccc1)N(CC(=O)N(CCc1c[nH]cn1)CC(=O)N(CCc1c[nH]c2ccccc12)CC(=O)N(CCc1c[nH]c2ccccc12)CC(N)=O)C(=O)CN(CCCCN)C(=O)CN(CCCCN)C(=O)CN(C(=O)CN(C(=O)CN(CCCCN)C(=O)CN(C(=O)CN(C(=O)CNCCCCN)[C@@H](C)c1ccccc1)[C@@H](C)c1ccccc1)[C@@H](C)c1ccccc1)[C@@H](C)c1ccccc1` [Peptoid 77] (H-[Nlys][Nspe][Nspe][Nlys][Nspe][Nspe][Nlys][Nlys][Nspe][Gly(N-CH2CH2-imidazol-4-yl)][Gly(N(CH2)2(3-indolyl))][Gly(N(CH2)2(3-indolyl))]-NH2): in the series on E. coli ATCC25922 (ATCC25922), the “MIC E. coli ATCC25922” value is 12.5 µM (≈ 23.6 µg/mL). Besides, the “MIC S. aureus ATCC 25923” value in the series on S. aureus ATCC 25923 (ATCC 25923) was 6.3 µM (≈ 11.9 µg/mL). In the series with red blood cells, the HD10 is >100.0/>100.0, the HD50 is >100.0/>100.0 and the “Hmax (100 μM)” value came out at 3.2 ± 0.3.
On to `C[C@@H](c1ccccc1)N(CC(N)=O)C(=O)CN(C(=O)CN(CCCCN)C(=O)CN(CCc1c[nH]c2ccccc12)C(=O)CN(CCc1c[nH]c2ccccc12)C(=O)CN(CCCCN)C(=O)CN(CCc1c[nH]c2ccccc12)C(=O)CN(CCc1c[nH]c2ccccc12)C(=O)CN(CCCCN)C(=O)CN(C(=O)CN(C(=O)CNCCCCN)[C@@H](C)c1ccccc1)[C@@H](C)c1ccccc1)[C@@H](C)c1ccccc1` [Peptoid 20], for which the “MIC E. coli ATCC25922” value with E. coli ATCC25922 (setting [2]) came to 6.3 µM (≈ 12.4 µg/mL). The “MIC S. aureus ATCC 25923” value in the series on S. aureus ATCC 25923 (setting [2]) amounted to 1.6 µM (≈ 3.16 µg/mL). Also, in the series on red blood cells, the HC10 stood at 8.2 µM, the HC50 is 33.9 µM and the “Hmax (100 μM)” value is reported as 106.7 ± 3.5%.
